This is an account of results in paper PMC12168924, “Construction of the reduced nicotinamide adenine dinucleotide salvage pathway in artificial cells and its application in amino acid synthesis” (Chemical Science, 2025).

The target of data set [1] is T1, ribose-phosphate pyrophosphokinase (RPPK) (Mycobacterium tuberculosis, UniProt P9WKE3).
T1 construct: gene prs
Nature of the data set: HPLC of AMP formation, inhibition at rising ADP. The conditions noted are these: inhibitor; assay per b47: R-5-P, ATP, MgCl2, 40 mM KH2PO4, Tris-HCl pH 8.0, 37 °C. The format is biochemical.

Data set [2] concerns the target T2, nicotinamide phosphoribosyltransferase (NAMPT) (Chitinophaga pinensis, UniProt A0A979FZM9).
T2 construct: gene Cpin_0607
T2 sequence (A0A979FZM9 1-471): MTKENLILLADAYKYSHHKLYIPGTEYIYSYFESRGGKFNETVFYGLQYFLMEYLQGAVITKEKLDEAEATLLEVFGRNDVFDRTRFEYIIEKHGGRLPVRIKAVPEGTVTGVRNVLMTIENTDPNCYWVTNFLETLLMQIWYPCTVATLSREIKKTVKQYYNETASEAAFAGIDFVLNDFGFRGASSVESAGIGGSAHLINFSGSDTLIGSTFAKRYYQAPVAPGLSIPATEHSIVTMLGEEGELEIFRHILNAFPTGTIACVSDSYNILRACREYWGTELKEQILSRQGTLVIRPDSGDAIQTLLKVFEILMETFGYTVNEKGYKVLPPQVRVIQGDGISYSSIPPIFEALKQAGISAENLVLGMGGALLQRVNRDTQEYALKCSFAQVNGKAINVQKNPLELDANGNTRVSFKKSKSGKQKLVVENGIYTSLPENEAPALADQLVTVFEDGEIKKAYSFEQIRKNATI
The data set can be described thus: HPLC of NMN formation. The format is biochemical. The conditions noted are these: PRPP made in situ by RPPK, 5 mM MgCl2, pH 8.0, 37 °C.

Substrate in data set [3]: NC(=O)c1ccc[n+]([C@@H]2O[C@H](COP(=O)(O)O)[C@@H](O)[C@H]2O)c1
Nature of the data set: HPLC of NMN depletion. The conditions noted are these: assay per b51: ATP, MgCl2, 40 mM KH2PO4, 50 mM Tris-HCl pH 8.0, 37 °C, kinetic details in supplement. The format is biochemical, Acinetobacter baylyi.

T1 sequence (P9WKE3 whole entry): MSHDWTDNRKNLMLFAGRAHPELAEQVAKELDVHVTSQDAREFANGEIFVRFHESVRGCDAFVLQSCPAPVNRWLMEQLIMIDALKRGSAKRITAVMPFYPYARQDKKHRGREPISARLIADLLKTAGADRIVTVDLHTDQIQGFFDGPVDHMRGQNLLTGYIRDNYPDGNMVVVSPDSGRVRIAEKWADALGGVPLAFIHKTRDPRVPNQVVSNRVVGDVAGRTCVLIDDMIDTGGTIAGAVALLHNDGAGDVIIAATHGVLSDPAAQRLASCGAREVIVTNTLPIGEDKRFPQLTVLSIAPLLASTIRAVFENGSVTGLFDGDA

In the case of `Nc1ncnc2c1ncn2[C@@H]1O[C@H](COP(=O)(O)OP(=O)(O)O)[C@@H](O)[C@H]1O` [ADP], the “HPLC of AMP formation, inhibition at rising ADP” value in data set [1] is “ADP was found to significantly inhibit RPPK activity”. For the molecule `O=P(O)(O)OC[C@H]1O[C@H](OP(=O)(O)OP(=O)(O)O)[C@H](O)[C@@H]1O` [PRPP], the “HPLC of NMN formation” value in data set [2] is “PRPP, an enzyme cascade was employed to synthesize PRPP for assessing NAMPT activity”.

B1: nicotinamide mononucleotide adenylyltransferase (NMNAT) (Acinetobacter baylyi ADP1) (protein)
chain: MYKFDYLVFIGRFQPFHFAHLQTIQIALQQSREVIIALGSAQPERNIKNPFLAEERQKMILANFSAEDQARIHFVNIIDVYNDQKWVEQVKQLVNAIIESRSHVGLIGHFKDESSYYLKLFPEWTMVELESLKESMSATPMREAYYEGKIIESAFPEGTIQFLKTFQDSEIYKQLQQKYRAQDSSNLI
On to B1, for which the Km in data set [3] worked out at 396.6 ± 59.6 µM.
